Laboratory results as given in BindingDB's records for doi:10.1021/jm025558r (Friedrich-Alexander University, 2002).

How the values were obtained:
[1] = target: D(1) dopamine receptor (Sus scrofa); assay: Binding affinity for porcine Dopamine receptor D1 by [3H]-SCH- 23390 displacement.
[2] = target: 5-hydroxytryptamine receptor 1A (Sus scrofa); assay: Displacement of [3H]- 8-OH-DPAT from porcine 5-hydroxytryptamine 1A receptor

O=C(NCCCCN1CCN(c2cccc(Cl)c2Cl)CC1)c1cc2ccccc2[te]1 [Benzo[b]tellurophene-2-carboxylic acid {4-[4-(2,3-dichloro-phenyl)-piperazin-1-yl]-butyl}-amide]
Ki [1]: 1400 nM | Ki [2]: 125 nM
